{"source": "paper PMC6335200", "about": "(Journal of medicinal chemistry, 2018)", "key": {"EBOV (Kikwit isolate) [1]": {"system": "EBOV (Kikwit isolate)", "test": "microbe, parasite or virus in culture", "conditions": "Zaire ebolavirus, Huh-7, 48 h, read-out: EBOV antiviral activity EC50"}, "CHIKV (strain AF15561)": {"system": "CHIKV (strain AF15561)", "type": "cell-based, Chikungunya virus"}, "AP2M1 phosphorylation": {"system": "AP2M1 phosphorylation", "test": "AP2M1 phosphorylation by Western analysis in Huh7 cells", "type": "cell-based, Human", "conditions": "calyculin A 30 minutes before lysis"}, "GAK": {"biological_target": "T1, GAK (Homo sapiens, UniProt O14976)", "T1 sequence (O14976 1-1311)": "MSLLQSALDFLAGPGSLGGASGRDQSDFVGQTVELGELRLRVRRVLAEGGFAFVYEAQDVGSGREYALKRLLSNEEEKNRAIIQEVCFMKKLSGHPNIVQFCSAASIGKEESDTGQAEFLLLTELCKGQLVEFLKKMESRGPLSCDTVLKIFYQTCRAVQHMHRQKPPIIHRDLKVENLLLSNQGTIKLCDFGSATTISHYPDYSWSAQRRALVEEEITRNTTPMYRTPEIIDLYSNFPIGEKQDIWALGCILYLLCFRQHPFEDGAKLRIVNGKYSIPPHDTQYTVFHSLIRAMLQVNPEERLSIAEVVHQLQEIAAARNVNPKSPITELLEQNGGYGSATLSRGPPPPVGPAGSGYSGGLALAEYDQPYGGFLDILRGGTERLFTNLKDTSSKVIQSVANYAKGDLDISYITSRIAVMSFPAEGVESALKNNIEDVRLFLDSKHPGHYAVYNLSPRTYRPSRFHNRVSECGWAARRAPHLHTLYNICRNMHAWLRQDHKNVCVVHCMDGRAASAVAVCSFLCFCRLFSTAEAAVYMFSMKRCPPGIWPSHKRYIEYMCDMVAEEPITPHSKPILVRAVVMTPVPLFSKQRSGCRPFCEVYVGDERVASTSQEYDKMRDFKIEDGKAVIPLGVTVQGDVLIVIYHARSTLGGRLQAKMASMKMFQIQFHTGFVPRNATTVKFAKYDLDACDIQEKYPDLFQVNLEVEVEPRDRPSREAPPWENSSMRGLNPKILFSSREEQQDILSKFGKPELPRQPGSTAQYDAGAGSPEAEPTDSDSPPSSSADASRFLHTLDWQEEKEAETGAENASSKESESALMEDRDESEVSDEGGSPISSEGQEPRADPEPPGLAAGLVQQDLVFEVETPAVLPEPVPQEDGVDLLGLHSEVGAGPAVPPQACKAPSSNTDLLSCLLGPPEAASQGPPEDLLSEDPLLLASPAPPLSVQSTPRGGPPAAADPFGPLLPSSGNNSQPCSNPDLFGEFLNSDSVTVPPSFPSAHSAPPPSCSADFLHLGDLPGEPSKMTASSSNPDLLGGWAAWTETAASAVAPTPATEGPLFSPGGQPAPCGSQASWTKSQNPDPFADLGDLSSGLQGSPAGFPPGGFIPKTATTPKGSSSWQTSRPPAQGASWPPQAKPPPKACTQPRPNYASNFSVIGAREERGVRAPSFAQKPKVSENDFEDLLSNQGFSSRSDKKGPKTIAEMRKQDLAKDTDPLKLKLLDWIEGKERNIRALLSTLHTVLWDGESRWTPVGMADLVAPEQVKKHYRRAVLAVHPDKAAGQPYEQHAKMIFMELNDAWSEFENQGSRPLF", "conditions": "read-out: GAK affinity Kd; cited from earlier work"}, "EBOV (Kikwit isolate) [2]": {"system": "EBOV (Kikwit isolate)"}}, "data": [{"smiles": "COc1cc(-c2cnc3c(N4C[C@@H](C)O[C@@H](C)C4)snc3c2)ccc1N", "note": "[Compound 12r, 4-(3-(cis-2,6-Dimethylmorpholino)isothiazolo[4,3-b]pyridin-6-yl)-2-methoxyaniline]", "values": [{"measurement": "EC50", "setting": "EBOV (Kikwit isolate) [1]", "result": "~2000", "unit": "nM"}, {"measurement": "effect on CHIKV infection (in words)", "setting": "CHIKV (strain AF15561)", "result": "dose-dependent decrease in CHIKV infection"}, {"measurement": "effect on AP2M1 phosphorylation (in words)", "setting": "AP2M1 phosphorylation", "result": "reduced AP2M1 phosphorylation"}]}, {"smiles": "COc1cc(-c2cnc3c(N4CCOCC4)snc3c2)ccc1N", "note": "[Compound 4]", "values": [{"measurement": "Kd", "setting": "GAK", "result": 8, "unit": "nM"}, {"measurement": "anti-EBOV activity (in words)", "setting": "EBOV (Kikwit isolate) [2]", "result": "no anti-EBOV activity beyond cytotoxicity"}]}]}
